The test concerns the target T1, Piezo1 (Rattus norvegicus, UniProt Q0KL00).
T1 construct: native channel in INS-1 832/13 and BRIN-BD11 rat β-cell lines
Put plainly: fura-2 Ca2+ influx and whole-cell patch-clamp in INS-1 cells; Piezo1 siRNA reduced Yoda1-induced insulin release. The format is cell-based.

These results are taken from paper PMC6856185, “Piezo1 channel activation mimics high glucose as a stimulator of insulin release” (Scientific Reports, 2019).

T1 sequence (Q0KL00 whole entry): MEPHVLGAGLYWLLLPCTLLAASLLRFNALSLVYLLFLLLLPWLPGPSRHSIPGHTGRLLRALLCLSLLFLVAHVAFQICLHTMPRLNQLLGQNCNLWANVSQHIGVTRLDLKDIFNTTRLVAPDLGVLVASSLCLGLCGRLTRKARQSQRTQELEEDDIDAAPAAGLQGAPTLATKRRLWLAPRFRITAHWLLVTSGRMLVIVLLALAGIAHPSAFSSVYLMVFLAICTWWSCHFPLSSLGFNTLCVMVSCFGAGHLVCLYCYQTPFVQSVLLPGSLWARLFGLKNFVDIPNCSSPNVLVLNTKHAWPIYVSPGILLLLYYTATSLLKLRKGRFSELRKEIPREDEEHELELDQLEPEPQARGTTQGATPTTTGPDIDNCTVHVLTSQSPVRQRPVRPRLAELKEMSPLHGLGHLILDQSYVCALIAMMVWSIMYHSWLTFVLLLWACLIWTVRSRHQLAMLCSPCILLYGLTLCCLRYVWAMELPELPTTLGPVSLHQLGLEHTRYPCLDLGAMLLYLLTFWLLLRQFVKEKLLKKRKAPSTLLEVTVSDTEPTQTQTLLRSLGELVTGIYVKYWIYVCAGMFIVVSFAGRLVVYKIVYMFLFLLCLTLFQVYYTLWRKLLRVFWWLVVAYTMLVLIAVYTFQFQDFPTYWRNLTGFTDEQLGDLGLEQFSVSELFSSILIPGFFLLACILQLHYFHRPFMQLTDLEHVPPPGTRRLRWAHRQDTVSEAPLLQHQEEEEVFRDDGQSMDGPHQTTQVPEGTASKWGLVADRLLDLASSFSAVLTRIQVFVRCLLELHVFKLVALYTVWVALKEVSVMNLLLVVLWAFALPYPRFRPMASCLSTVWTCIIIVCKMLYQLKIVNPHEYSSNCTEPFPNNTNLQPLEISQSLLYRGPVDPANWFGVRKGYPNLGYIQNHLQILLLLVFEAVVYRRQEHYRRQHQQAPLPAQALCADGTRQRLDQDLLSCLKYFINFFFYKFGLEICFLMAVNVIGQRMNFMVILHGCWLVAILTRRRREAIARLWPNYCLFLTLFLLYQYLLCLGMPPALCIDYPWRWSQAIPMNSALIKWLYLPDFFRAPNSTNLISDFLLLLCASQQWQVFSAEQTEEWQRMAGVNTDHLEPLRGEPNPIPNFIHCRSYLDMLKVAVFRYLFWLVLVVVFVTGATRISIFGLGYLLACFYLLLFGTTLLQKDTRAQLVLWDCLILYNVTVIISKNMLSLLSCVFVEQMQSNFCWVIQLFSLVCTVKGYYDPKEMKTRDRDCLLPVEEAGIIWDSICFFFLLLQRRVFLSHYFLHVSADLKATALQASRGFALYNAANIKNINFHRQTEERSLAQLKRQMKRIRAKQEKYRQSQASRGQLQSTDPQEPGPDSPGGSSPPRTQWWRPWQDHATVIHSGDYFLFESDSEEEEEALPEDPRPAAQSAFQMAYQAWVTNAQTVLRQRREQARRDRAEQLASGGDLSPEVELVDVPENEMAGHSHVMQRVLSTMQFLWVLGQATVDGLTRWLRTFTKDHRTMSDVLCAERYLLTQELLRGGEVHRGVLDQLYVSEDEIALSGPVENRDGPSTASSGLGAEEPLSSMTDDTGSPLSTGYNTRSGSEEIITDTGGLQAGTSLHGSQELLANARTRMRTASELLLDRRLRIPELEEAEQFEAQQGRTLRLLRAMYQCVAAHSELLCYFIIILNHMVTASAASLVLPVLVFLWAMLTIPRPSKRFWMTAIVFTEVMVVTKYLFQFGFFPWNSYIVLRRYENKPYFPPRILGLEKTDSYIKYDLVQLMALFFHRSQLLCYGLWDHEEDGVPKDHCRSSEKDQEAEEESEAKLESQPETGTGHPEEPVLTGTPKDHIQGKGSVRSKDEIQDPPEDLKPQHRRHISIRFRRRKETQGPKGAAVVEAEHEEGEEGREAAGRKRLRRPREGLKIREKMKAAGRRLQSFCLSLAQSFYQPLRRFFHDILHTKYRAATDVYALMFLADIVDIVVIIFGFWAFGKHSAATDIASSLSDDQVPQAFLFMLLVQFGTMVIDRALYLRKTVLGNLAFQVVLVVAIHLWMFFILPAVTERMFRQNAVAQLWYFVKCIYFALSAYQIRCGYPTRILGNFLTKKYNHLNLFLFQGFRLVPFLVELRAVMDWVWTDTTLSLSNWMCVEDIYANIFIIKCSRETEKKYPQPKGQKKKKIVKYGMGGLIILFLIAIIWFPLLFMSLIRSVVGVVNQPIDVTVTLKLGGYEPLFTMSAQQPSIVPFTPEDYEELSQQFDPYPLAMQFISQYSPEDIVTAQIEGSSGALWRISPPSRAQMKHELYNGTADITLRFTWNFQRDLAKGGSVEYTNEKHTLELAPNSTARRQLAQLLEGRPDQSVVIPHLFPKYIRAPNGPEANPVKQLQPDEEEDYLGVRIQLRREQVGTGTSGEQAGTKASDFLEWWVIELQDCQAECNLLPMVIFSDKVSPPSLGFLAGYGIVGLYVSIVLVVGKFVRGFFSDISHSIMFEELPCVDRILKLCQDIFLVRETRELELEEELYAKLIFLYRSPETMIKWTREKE

In the case of `Clc1cccc(Cl)c1CSc1nnc(-c2cnccn2)s1` [Yoda1], the EC50 was ~4 µM.
